Data published in patent US20230112845A1, “COMPOSITIONS OF BERBERINE URSODE[…] METHODS THEREOF FOR TREATING FATTY LIVER DISEASE, DIABETES AND HYPERLIPIDEMIA” (SHENZHEN HIGHTIDE BIOPHARMACEUTICAL LTD., priority 2020, published 2023).

Experiments:
[1] = system: subjects with a history of hypercholesterolemia; experiment: Phase 1b randomized placebo-controlled dose-ranging study: serum lipids, lipoproteins, HbA1c, ALT; type: in vivo, human; set-up: TG (serum level) / TC (serum level) / Non-HDL-c (serum level) / HDL-c (serum level): unit not given here; LDL-c (serum level): unit: mmol/L
Procedure: (§1) A double-blind, randomized, placebo-controlled, dose ranging study was carried out that compared three doses of berberine ursodeoxycholate (BUDCA, a.k.a. HTD1801) to placebo in a cohort of subjects with a history of hypercholesterolemia and serum LDL-c levels above 2.59 mmol/L (>99.9 mg/dL). BUDCA was administered in two divided doses each day for 28 days. The primary endpoints of the study were safety and tolerability of this new compound, as well as its effect in lowering serum lipid and lipoprotein concentrations.
Adult subjects were recruited and enrolled into this double-blind, randomized placebo-controlled dose ranging study at one of three research units in Australia between April and December of 2018. The key entry criteria were hypercholesterolemia, with serum LDL-c >2.59 mmol/L (>99.9 mg/dL) and overweight or obesity (BMI between 25 and 40 kg/m^2). […] Subjects were asked to discontinue the use of lipid-lowering medications at least 28 days prior to their first dose of BUDCA and for the duration of the study.
Subjects underwent an initial assessment and were then randomized to receive ascending doses of BUDCA in three sequential dosing groups: Group I received 500 mg/day of BUDCA or matching placebo in a ratio of 3:1. Group II received 1,000 mg/day of BUDCA or placebo, 3:1 and Group III received 2,000 mg/day BUDCA or placebo, 3:1. Study medication or placebo was given in two equal doses daily for 28 days. The investigational product BUDCA was administered in the form of film-coated tablets, each tablet containing 250 mg of BUDCA. The placebo was identical in appearance to the active agent. Subjects were instructed to take their tablets after breakfast and after dinner respectively with a glass of water.
The groups were enrolled sequentially, but follow-up overlapped (the next cohort could begin during the follow-up period of the prior cohort) (FIG. 1). The decision to move to the next dose level was based upon tolerability and safety findings, as assessed by a Safety Monitoring Committee. Individual subjects were admitted overnight for their first and last doses and so as to draw blood samples for pharmacokinetic studies; in between, they were seen every few days. Subjects were asked to arrive in a fasting state (typically overnight). After having vital signs measured and baseline laboratory tests taken, the subject was given a morning meal and then observed while taking their first dose of BUDCA with a glass of water. They stayed overnight to allow sampling for PK studies which were drawn at the following time points −18 hours, −12, −6, 0 time (pre-dose), +0.25 (post-dose), +0.5, +1, +2, +3, +4, +8, +12, +24 hours. Blood samples for PK studies were collected in dipotassium ethylene diamine tetra-acetic acid (K2EDTA) as the anticoagulant and the assays were done on plasma.
Blood samples for serum biochemistry (including lipid levels) and blood counts were drawn with subjects in a fasting state, at baseline and every 14 days through the study. Samples were shipped in a refrigerated state to laboratory where testing was done using routine clinical methodology, as follows: HbA1c was measured by ion-exchange HPLC (Bio-Rad D-100). For samples received by the laboratory prior to Sep. 2, 2018, the following analytes were measured on the Roche Diagnostics Modular P100 platform (ALT by photometric assay, TC by Trinder peroxidase assay, LDL-c by photometric assay, HDL-c by homogenous enzymatic colorimetric assay and TG by photometric assay). For samples received by the laboratory after Sep. 2, 2018, the following analytes were measured on the Beckman Coulter AU 5800 platform (ALT by photometric assay, TC by cholesterol-oxidase/peroxidase assay, LDL-c by homogenous enzymatic colorimetric assay, HDL-c by immune inhibition and cholesterol oxidase assay and TG by an enzymatic method using opiase/GK/GPO-PAP-4 amino phenazone). […]

[2] = system: subjects with a history of hypercholesterolemia; experiment: Phase 1b study: safety and tolerability; type: in vivo, human; conditions: 28 days
Procedure: as §1
Subjects underwent an initial assessment and were then randomized to receive ascending doses of BUDCA in three sequential dosing groups: Group I received 500 mg/day of BUDCA or matching placebo in a ratio of 3:1. Group II received 1,000 mg/day of BUDCA or placebo, 3:1 and Group III received 2,000 mg/day BUDCA or placebo, 3:1. Study medication or placebo was given in two equal doses daily for 28 days. […]
The groups were enrolled sequentially, but follow-up overlapped (the next cohort could begin during the follow-up period of the prior cohort) (FIG. 1). The decision to move to the next dose level was based upon tolerability and safety findings, as assessed by a Safety Monitoring Committee. […] After having vital signs measured and baseline laboratory tests taken, the subject was given a morning meal and then observed while taking their first dose of BUDCA with a glass of water. […]

[3] = highest dose (2,000 mg per day), day 28

For COc1ccc2cc3[n+](cc2c1OC)CCc1cc2c(cc1-3)OCO2.C[C@H](CCC(=O)[O-])[C@H]1CC[C@H]2[C@@H]3[C@@H](O)C[C@@H]4C[C@H](O)CC[C@]4(C)[C@H]3CC[C@]12C [BUDCA, berberine ursodeoxycholate], the “HDL-c (serum level)” value ([1]; 500 mg/day, Day 14, baseline 1.25, P vs. placebo n.s.) was 1.22, the “TG (serum level)” value ([1]; 500 mg/day, Day 14, baseline 2.11, P vs. placebo n.s.) was 1.89 and the “LDL-c (serum level)” value ([1]; 500 mg/day, Day 14, baseline 4.01, P vs. placebo n.s.) was 3.87. For the same compound, the “Non-HDL-c (serum level)” value ([1]; 500 mg/day, Day 14, baseline 4.85, P vs. placebo n.s.) was 4.75, the “TC (serum level)” value ([1]; 500 mg/day, Day 14, baseline 6.13, P vs. placebo n.s.) was 5.96 and the “HDL-c (serum level)” value ([1]; 500 mg/day, Day 28, baseline 1.25, P vs. placebo n.s.) was 1.17. For the same compound, the “TG (serum level)” value ([1]; 500 mg/day, Day 28, baseline 2.11, P vs. placebo n.s.) was 2.27, the “LDL-c (serum level)” value ([1]; 500 mg/day, Day 28, baseline 4.01, P vs. placebo n.s.) was 3.72 and the “Non-HDL-c (serum level)” value ([1]; 500 mg/day, Day 28, baseline 4.85, P vs. placebo 0.03) was 4.71. The “TC (serum level)” value ([1]; 500 mg/day, Day 28, baseline 6.13, P vs. placebo n.s.) was 5.88, the “HDL-c (serum level)” value ([1]; 1,000 mg/day, Day 14, baseline 1.32, P vs. placebo n.s.) was 1.29 and the “TG (serum level)” value ([1]; 1,000 mg/day, Day 14, baseline 1.76, P vs. placebo n.s.) was 1.73. For the same compound, the “LDL-c (serum level)” value ([1]; 1,000 mg/day, Day 14, baseline 3.68, P vs. placebo n.s.) was 3.42, the “Non-HDL-c (serum level)” value ([1]; 1,000 mg/day, Day 14, baseline 4.48, P vs. placebo n.s.) was 4.23 and the “TC (serum level)” value ([1]; 1,000 mg/day, Day 14, baseline 5.81, P vs. placebo n.s.) was 5.51. For the same compound, the “HDL-c (serum level)” value ([1]; 1,000 mg/day, Day 28, baseline 1.32, P vs. placebo n.s.) was 1.23, the “TG (serum level)” value ([1]; 1,000 mg/day, Day 28, baseline 1.76, P vs. placebo 0.028) was 1.86 and the “LDL-c (serum level)” value ([1]; 1,000 mg/day, Day 28, baseline 3.68, P vs. placebo n.s.) was 3.51. The “Non-HDL-c (serum level)” value ([1]; 1,000 mg/day, Day 28, baseline 4.48, P vs. placebo 0.025) was 4.31, the “TC (serum level)” value ([1]; 1,000 mg/day, Day 28, baseline 5.81, P vs. placebo n.s.) was 5.54 and the “HDL-c (serum level)” value ([1]; 2,000 mg/day, Day 14, baseline 1.24, P vs. placebo n.s.) was 1.33. The “TG (serum level)” value ([1]; 2,000 mg/day, Day 14, baseline 1.60, P vs. placebo n.s.) was 1.42, the “LDL-c (serum level)” value ([1]; 2,000 mg/day, Day 14, baseline 3.85, P vs. placebo 0.0093) was 3.40 and the “Non-HDL-c (serum level)” value ([1]; 2,000 mg/day, Day 14, baseline 4.62, P vs. placebo 0.0018) was 4.04. The “TC (serum level)” value ([1]; 2,000 mg/day, Day 14, baseline 5.91, P vs. placebo 0.01) was 5.37, the “HDL-c (serum level)” value ([1]; 2,000 mg/day, Day 28, baseline 1.24, P vs. placebo n.s.) was 1.29 and the “TG (serum level)” value ([1]; 2,000 mg/day, Day 28, baseline 1.60, P vs. placebo 0.0018) was 1.54. The “LDL-c (serum level)” value ([1]; 2,000 mg/day, Day 28, baseline 3.85, P vs. placebo 0.091) was 3.44, the “Non-HDL-c (serum level)” value ([1]; 2,000 mg/day, Day 28, baseline 4.62, P vs. placebo 0.0002) was 4.14 and the “TC (serum level)” value ([1]; 2,000 mg/day, Day 28, baseline 5.91, P vs. placebo 0.003) was 5.42. The “ALT level during therapy” value ([1]; 500-2,000 mg/day, 28 days) was “did not change significantly”, the “HbA1C level during therapy” value ([1]; 500-2,000 mg/day, 28 days) was “did not change significantly” and the “serum lipid levels among subjects receiving active therapy” value ([1]; 500-2,000 mg/day, maximum reductions relative to placebo after 14 days) was “decreased in a dose-dependent fashion”. For the same compound, the “change in HDL-c concentration” value [1, 3] was “no significant changes”, the “change in TG concentration” value [1, 3] was “no significant changes” and the “reduction in the serum concentration of TC” value ([1]; highest dose (2,000 mg per day), day 28, P=0.0004) was 8.2%. The “reduction in the serum concentration of LDL-c” value ([1]; highest dose (2,000 mg per day), day 28, P=0.0006) was 10.4%, the “frequency of treatment-related adverse events” value ([2]; active drug, all doses, placebo 66%) was 67% and the tolerability ([2]; up to 2,000 mg per day) was “generally well tolerated”.
